Laboratory results reported in PMC6199744, “Development of Chemical Proteomics for the Folateome and Analysis of the Kinetoplastid Folateome” (ACS Infectious Diseases, 2018).
Where two headings read alike, the source gives them in different places.

System: T. brucei lysate proteins
Type: binding, Trypanosoma brucei
Conditions: for abundance relative to vehicle: X016405, bead mixture, free compound 100.0uM, Trypanosoma brucei

Nc1nc2cccc(-c3ccccc3)c2n1Cc1ccc(Cl)c(Cl)c1 [compound 3]
abundance relative to vehicle (protein TB427.02.1850): 0.84 | abundance relative to vehicle (protein TB427.06.4760): 0.94 | abundance relative to vehicle (protein TB427.07.3620): 0.78 | abundance relative to vehicle (protein TB427.08.1880): 1.20 | fold change - vehicle control (protein RHS6A (CZT00028360.1)): 0.89 | fold change - vehicle control (protein TB09.160.1250 HY[…], CONSERVED): 0.88 | fold change - vehicle control (protein TB09.160.3670 RIBOSOMAL PROTEIN S6, PUTATIVE): 0.98 | fold change - vehicle control (protein TB09.211.2630 60S RIBOSOMAL PROTEIN L23, PUTATIVE): 0.92 | fold change - vehicle control (protein TB09.211.4513 KIN[…] PROTEIN KMP-11): 1.1 | fold change - vehicle control (protein TB11.V4.0005 RIBONUCLEOSIDE-DIPHOSPHATE REDUCTASE SMALL CHAIN): 0.81 | fold change - vehicle control (protein TB11.01.0870 R[…] A, 51KDA SUBUNIT, PUTATIVE): 1.11 | fold change - vehicle control (protein TB11.01.2560 40S RIBOSOMAL PROTEIN SA, PUTATIVE): 0.92 | fold change - vehicle control (protein TB11.01.4880 HY[…], CONSERVED): 0.9 | fold change - vehicle control (protein TB11.01.7090 HY[…], CONSERVED): 0.87 | fold change - vehicle control (protein TB11.02.2510 GUANINE NUCLEOTIDE-BINDING BETA SUBUNIT-LIKE PROTEIN): 0.96 | fold change - vehicle control (protein TB11.02.4170 40S RIBOSOMAL PROTEIN S5, PUTATIVE): 0.92 | fold change - vehicle control (protein TB11.03.0250 C[…]): 1.22 | fold change - vehicle control (protein TB11.46.0009 HY[…], CONSERVED): 0.89 | fold change - vehicle control (protein TB427TMP.01.0620 HY[…], CONSERVED): 0.76 | fold change - vehicle control (protein TB427TMP.01.1475 40S RIBOSOMAL PROTEIN S27, PUTATIVE): 1.02 | fold change - vehicle control (protein TB427TMP.01.4280 HY[…], CONSERVED): 0.82 | fold change - vehicle control (protein TB427TMP.01.4650 HY[…], CONSERVED): 0.97 | fold change - vehicle control (protein TB427TMP.01.4810 HY[…], CONSERVED): 0.99 | fold change - vehicle control (protein TB427TMP.01.5680 HY[…], CONSERVED): 0.54 | fold change - vehicle control (protein TB427TMP.01.8390 HY[…], CONSERVED): 0.84 | fold change - vehicle control (protein TB427TMP.02.0230 HY[…], CONSERVED): 1.04 | fold change - vehicle control (protein TB427TMP.02.0460 NUCLEOPORIN): 0.82 | fold change - vehicle control (protein TB427TMP.02.1106 NUCLEOBASE/NUCLEOSIDE TRANSPORTER 8 1): 1.05 | fold change - vehicle control (protein TB427TMP.160.2050 ENDO-BETA-N-ACETYLGLUCOSAMINIDASE, PUTATIVE): 0.92 | fold change - vehicle control (protein TB427TMP.160.4310 GLUTAMATE DEHYDROGENASE): 0.97 | fold change - vehicle control (protein TB427TMP.160.4450 40S RIBOSOMAL PROTEIN S3, PUTATIVE): 0.97 | fold change - vehicle control (protein TB427TMP.160.4630 HY[…], CONSERVED): 0.86 | fold change - vehicle control (protein TB427TMP.160.5200 HY[…], CONSERVED): 0.69 | fold change - vehicle control (protein TB427TMP.160.5670 HY[…], CONSERVED): 0.83 | fold change - vehicle control (protein TB427TMP.211.0930 POLYADENYLATE-BINDING PROTEIN 1): 0.97 | fold change - vehicle control (protein TB427TMP.211.1750 MIT[…] PROTEIN, PUTATIVE): 0.88 | fold change - vehicle control (protein TB427TMP.211.3510 ATP-DEPENDENT DEAD/H RNA HELICASE, PUTATIVE): 1.06 | fold change - vehicle control (protein TB427TMP.211.4540 RNA-BINDING PROTEIN, PUTATIVE): 1.05 | fold change - vehicle control (protein TB427TMP.244.2840 HY[…], CONSERVED): 0.92 | fold change - vehicle control (protein TB427.01.1240 CYTIDINE TR[…], PUTATIVE): 0.84 | fold change - vehicle control (protein TB427.01.2570 COATOMER BETA SUBUNIT): 0.73 | fold change - vehicle control (protein TB427.01.3910 HY[…], CONSERVED): 0.78 | fold change - vehicle control (protein TB427.02.450 RETRO[…] SPOT (RHS) PROTEIN, PUTATIVE): 0.81 | fold change - vehicle control (protein TB427.02.6240): 1.08 | fold change - vehicle control (protein TB427.04.3350 HY[…], CONSERVED): 0.72 | fold change - vehicle control (protein TB427.04.3890 ATP-DEPENDENT RNA HELICASE, PUTATIVE): 0.92 | fold change - vehicle control (protein TB427.04.4870 AMINO ACID TRANSPORTER, PUTATIVE): 0.87 | fold change - vehicle control (protein TB427.04.750 50S RIBOSOMAL PROTEIN L7AE, PUTATIVE): 1.12 | fold change - vehicle control (protein TB427.04.960 HY[…], CONSERVED): 0.88 | fold change - vehicle control (protein TB427.05.1490 HY[…], CONSERVED): 0.8 | fold change - vehicle control (protein TB427.05.1780 HY[…], CONSERVED): 0.77 | fold change - vehicle control (protein TB427.05.3030 INTR[…] PROTEIN IFT122, PUTATIVE): 0.89 | fold change - vehicle control (protein TB427.05.4560 GUANINE DEAMINASE, PUTATIVE): 0.7 | fold change - vehicle control (protein TB427.06.2150 CELL DIVISION CYCLE PROTEIN 16, PUTATIVE): 0.83 | fold change - vehicle control (protein TB427.06.3110 PROTEIN KINASE, PUTATIVE (CRK11)): 0.87 | fold change - vehicle control (protein TB427.06.5110 DAMAGE-SPECIFIC DNA BINDING PROTEIN, PUTATIVE): 0.98 | fold change - vehicle control (protein TB427.07.2670 HY[…], CONSERVED): 3.19 | fold change - vehicle control (protein TB427.07.3040 HY[…], CONSERVED): 0.98 | fold change - vehicle control (protein TB427.07.3530 HY[…], CONSERVED): 0.87 | fold change - vehicle control (protein TB427.07.4970 GLUTAMINE SYNTHETASE, PUTATIVE): 0.9 | fold change - vehicle control (protein TB427.07.5560 GLUCOSAMINE-FRUCTOSE-6-PHOSPHATE AMINOTRANSFERASE, PUTATIVE): 0.84 | fold change - vehicle control (protein TB427.07.5890 HY[…], CONSERVED): 0.79 | fold change - vehicle control (protein TB427.07.7070 HY[…], CONSERVED): 0.62 | fold change - vehicle control (protein TB427.07.7460 HY[…], CONSERVED): 0.91 | fold change - vehicle control (protein TB427.08.1500 HY[…], CONSERVED): 0.95 | fold change - vehicle control (protein TB427.08.1840 HY[…], CONSERVED): 0.95 | fold change - vehicle control (protein TB427.08.1960 HY[…], CONSERVED): 0.78 | fold change - vehicle control (protein TB427.08.2080 HY[…], CONSERVED): 1.08 | fold change - vehicle control (protein TB427.08.3750 NUCLEOLAR PROTEIN, PUTATIVE): 0.92 | fold change - vehicle control (protein TB427.08.6390 LYSOPHOSPHOLIPASE, PUTATIVE): 1.03 | fold change - vehicle control (protein TB427.10.10610 PROTEIN TYROSINE PHOSPHATASE, PUTATIVE): 0.69 | fold change - vehicle control (protein TB427.10.1100 60S RIBOSOMAL PROTEIN L9, PUTATIVE): 0.86 | fold change - vehicle control (protein TB427.10.12740): 0.9 | fold change - vehicle control (protein TB427.10.14660 HY[…], CONSERVED): 1.05 | fold change - vehicle control (protein TB427.10.15720 […]-ATP-ASE SUBUNIT 9): 0.82 | fold change - vehicle control (protein TB427.10.2440 METACASPASE MCA4): 0.84 | fold change - vehicle control (protein TB427.10.2900 IMPORTIN BETA-1 SUBUNIT, PUTATIVE): 0.79 | fold change - vehicle control (protein TB427.10.3470 HY[…], CONSERVED): 0.74 | fold change - vehicle control (protein TB427.10.4110 60S RIBOSOMAL PROTEIN L30): 0.91 | fold change - vehicle control (protein TB427.10.4610 […]-MANNOSE SYNTHASE, PUTATIVE): 0.85 | fold change - vehicle control (protein TB427.10.5250 HY[…], CONSERVED): 0.82 | fold change - vehicle control (protein TB427.10.5840 T[…] 1-BETA, PUTATIVE): 0.65 | fold change - vehicle control (protein TB427.10.7410 SUCCINYL-COA LIGASE GDP-FORMING] BETA-CHAIN, PUTATIVE): 0.85 | fold change - vehicle control (protein TB927.10.12960 RAS-RELATED PROTEIN RAB-5): 0.9 | fold change - vehicle control (protein TB927.10.14800 PROTEIN KINASE, PUTATIVE): 1.09 | fold change - vehicle control (protein TB927.10.2980 […]-ATPASE SUBUNIT 11): 1.07 | fold change - vehicle control (protein TB927.10.3660 ASPARTATE AMINOTRANSFERASE): 0.86 | fold change - vehicle control (protein TB927.10.4570 […] 2): 0.66 | fold change - vehicle control (protein TB927.10.5140 PROTEIN KINASE, PUTATIVE): 1.06 | fold change - vehicle control (protein TB927.10.560 40S RIBOSOMAL PROTEINS S11, PUTATIVE): 0.95 | fold change - vehicle control (protein TB927.10.6510 CHAPERONIN HSP60, MIT[…]): 0.86 | fold change - vehicle control (protein TB927.3.1840 3-OXO-5-ALPHA-STEROID 4-DEHYDROGENASE, PUTATIVE): 0.92 | fold change - vehicle control (protein TB927.3.3780 TRYPAREDOXIN): 0.85 | fold change - vehicle control (protein TB927.3.740 HY[…], CONSERVED): 0.91 | fold change - vehicle control (protein TB927.4.2740 HY[…], CONSERVED): 1.05 | fold change - vehicle control (protein TB927.4.3590 T[…] 1-BETA, PUTATIVE): 0.69 | fold change - vehicle control (protein TB927.6.4320 HY[…], CONSERVED): 0.75 | fold change - vehicle control (protein TB927.7.2550 […] SUBUNIT 5): 0.86 | fold change - vehicle control (protein TB927.7.2980 HY[…], CONSERVED): 0.75
